How the values were obtained:
Format in all cases: cell-based, Escherichia coli
ΔtolC-Pore = experiment: microbe, parasite or virus in culture; conditions: technical duplicate; for Minimum inhibitory concentration (MIC), Pore ΔtolC: Table 10, with pore; for Minimum inhibitory concentration, ΔtolC-Pore: Table 14A, porinated
Procedure, shortened: (§1)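 MIC values come from background-corrected OD600 readings (pre-incubation OD subtracted) after 18 h at 37 °C and 900 rpm in MHB II. Compounds were tested in duplicate as 2-fold dilutions. The inoculum came from 18 h LB cultures adjusted to OD600 ~1.0 and diluted 1/2000, and the pore-bearing strains were vancomycin-checked beforehand.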

wild-type (WT) K-12-Pore = experiment: microbe, parasite or virus in culture; conditions: technical duplicate; for Minimum inhibitory concentration (MIC), Pore K-12: Table 10, with pore; for Minimum inhibitory concentration, K-12 (WT)-Pore: Table 14A, porinated
Procedure, shortened: as §1

EKO-35 araC::mdtBC Pore = experiment: MIC susceptibility profiling, porinated efflux platform; conditions: for Fold changes of MICs: EKO-35 araC::mdtBC Pore compared to EKO-35-Pore; for Minimum inhibitory concentration: EKO-35 araC::mdtBC Pore, technical duplicate
Procedure, shortened: as §1

EKO-35 araC::mdtEF Pore = experiment: as above; conditions: for Minimum inhibitory concentration, EKO-35 araC::mdtEF Pore: Table 14A, porinated, technical duplicate
Procedure, shortened: as §1

EKO-35 araC::acrB Pore = experiment: as above; conditions: for Fold changes of MICs: EKO-35 araC::acr-B Pore compared to EKO-35-Pore; for Minimum inhibitory concentration, EKO-35 araC::acrB Pore: Table 14A, porinated, technical duplicate
Procedure, shortened: as §1

EKO-35 araC::acrD = experiment: MIC susceptibility profiling, efflux platform; conditions: for Fold change of MICs: EKO-35 araC::acrD compared to EKO-35; for Minimum Inhibitory Concentration, EKO-35 araC::acrD: Table 13A, non-porinated, technical duplicate
Procedure, shortened: (§2)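 Turbidity (OD600, pre-incubation subtracted) defined growth after 18 h at 37 °C in MHB II. The inoculum was diluted 1/2000 from an OD600 ~1.0 PBS suspension of an overnight LB culture. Compounds were run as duplicate twofold dilutions.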

EKO-35 araC::mdtBC = experiment: MIC susceptibility profiling, efflux platform; conditions: for Fold change of MICs: EKO-35 araC::mdtBC compared to EKO-35; for Minimum Inhibitory Concentration, EKO-35 araC::mdtBC: Table 13B, non-porinated, technical duplicate
Procedure, shortened: as §2

EKO-35 araC::macAB = experiment: MIC susceptibility profiling, efflux platform; conditions: for Fold change of MICs: EKO-35 araC::macAB compared to EKO-35; for Minimum Inhibitory Concentration, EKO-35 araC::macAB: Table 13B, non-porinated, technical duplicate
Procedure, shortened: as §2

EKO-35 araC::emrAB = experiment: MIC susceptibility profiling, efflux platform; conditions: for Fold change of MICs: EKO-35 araC::emrAB compared to EKO-35; for Minimum Inhibitory Concentration, EKO-35 araC::emrAB: Table 13B, non-porinated, technical duplicate
Procedure, shortened: as §2

EKO-35 araC::mdtEF = experiment: MIC susceptibility profiling, efflux platform; conditions: for Fold change of MICs: EKO-35 araC::mdtEF compared to EKO-35; for Minimum Inhibitory Concentration, EKO-35 araC::mdtEF: Table 13A, non-porinated, technical duplicate
Procedure, shortened: as §2

[1] = tested on: EKO-35 araC::mexCD (MexCD from P. aeruginosa); experiment: MIC susceptibility profiling, efflux platform; conditions: for Fold change of MICs: EKO-35 araC::mexCD compared to EKO-35; for Minimum Inhibitory Concentration, EKO-35 araC::mexCD: Table 13B, non-porinated, technical duplicate
Procedure, shortened: as §2

EKO-35 araC::acrB = experiment: MIC susceptibility profiling, efflux platform; conditions: for Fold change of MICs: EKO-35 araC::acrB compared to EKO-35; for Minimum Inhibitory Concentration, EKO-35 araC::acrB: Table 13A, non-porinated, technical duplicate
Procedure, shortened: as §2

EKO-35 araC::emrKY = experiment: MIC susceptibility profiling, efflux platform; conditions: for Fold change of MICs: EKO-35 araC::emrKY compared to EKO-35; for Minimum Inhibitory Concentration, EKO-35 araC::emrKY: Table 13B, non-porinated, technical duplicate
Procedure, shortened: as §2

EKO-35 araC::acrEF = experiment: MIC susceptibility profiling, efflux platform; conditions: for Fold change of MICs: EKO-35 araC::acrEF compared to EKO-35; for Minimum Inhibitory Concentration, EKO-35 araC::acrEF: Table 13A, non-porinated, technical duplicate
Procedure, shortened: as §2

EKO-35 araC::acrBD408A = experiment: MIC susceptibility profiling, efflux platform; conditions: for Fold change of MICs: EKO-35 araC::acrBD408A compared to EKO-35; for Minimum Inhibitory Concentration, EKO-35 araC::acrBD408A: Table 13B, non-porinated, technical duplicate
Procedure, shortened: as §2

[2] = tested on: wild-type E. coli K-12 str. BW25113; experiment: microbe, parasite or virus in culture; conditions: technical duplicate; for Minimum inhibitory concentration (MIC), K-12: Table 10, without pore; for Minimum Inhibitory Concentration, K-12: Table 13A, non-porinated
Procedure, shortened: as §2

E. coli EKO-35 = experiment: microbe, parasite or virus in culture; conditions: for Fold change of MICs: EKO-35 compared to EKO-35 (reference); for Minimum inhibitory concentration (MIC), EKO-35: Table 10, without pore; for Minimum inhibitory concentration (MIC), EKO-35 / Minimum Inhibitory Concentration, EKO-35: technical duplicate; for Minimum Inhibitory Concentration, EKO-35: Table 13A, non-porinated; for susceptibility of EKO-35 to the compound: synthetic efflux substrates of FIG. 12
Procedure, shortened: as §2

E. coli ΔtolC = experiment: microbe, parasite or virus in culture; conditions: technical duplicate; for Minimum inhibitory concentration (MIC), ΔtolC: Table 10, without pore; for Minimum Inhibitory Concentration, ΔtolC: Table 13A, non-porinated
Procedure, shortened: as §2

EKO-35-Pore = experiment: MIC susceptibility profiling, porinated strain; conditions: for Fold changes of MICs: EKO-35-Pore compared to EKO-35-Pore (reference); for Minimum inhibitory concentration (MIC), Pore EKO-35: Table 10, with pore; for Minimum inhibitory concentration (MIC), Pore EKO-35 / Minimum inhibitory concentration, EKO-35-Pore: technical duplicate; for Minimum inhibitory concentration, EKO-35-Pore: Table 14A, porinated
Procedure, shortened: as §1

Structure (SMILES) | Minimum inhibitory concentration (MIC), Pore ΔtolC (ΔtolC-Pore) [mg/L] | Minimum inhibitory concentration, ΔtolC-Pore (ΔtolC-Pore) [mg/L] | Minimum inhibitory concentration (MIC), Pore K-12 (wild-type (WT) K-12-Pore) [mg/L] | Minimum inhibitory concentration, K-12 (WT)-Pore (wild-type (WT) K-12-Pore) [mg/L] | Minimum inhibitory concentration (EKO-35 araC::mdtBC Pore) [mg/L] | Minimum inhibitory concentration, EKO-35 araC::mdtEF Pore (EKO-35 araC::mdtEF Pore) [mg/L] | Fold changes of MICs (EKO-35 araC::acrB Pore) [fold] | Minimum inhibitory concentration, EKO-35 araC::acrB Pore (EKO-35 araC::acrB Pore) [mg/L] | Fold change of MICs (EKO-35 araC::acrD) [fold] | Minimum Inhibitory Concentration, EKO-35 araC::acrD (EKO-35 araC::acrD) [µg/mL] | Fold change of MICs (EKO-35 araC::mdtBC) [fold] | Minimum Inhibitory Concentration, EKO-35 araC::mdtBC (EKO-35 araC::mdtBC) [µg/mL] | Fold change of MICs (EKO-35 araC::macAB) [fold] | Minimum Inhibitory Concentration, EKO-35 araC::macAB (EKO-35 araC::macAB) [µg/mL] | Fold change of MICs (EKO-35 araC::emrAB) [fold] | Minimum Inhibitory Concentration, EKO-35 araC::emrAB (EKO-35 araC::emrAB) [µg/mL] | Fold change of MICs (EKO-35 araC::mdtEF) [fold] | Minimum Inhibitory Concentration, EKO-35 araC::mdtEF (EKO-35 araC::mdtEF) [µg/mL] | Fold change of MICs [1] [fold] | Minimum Inhibitory Concentration, EKO-35 araC::mexCD [1] [µg/mL] | other results
N#CC(=NNc1cccc(C(F)(F)F)c1)C(=O)c1ccsc1 [compound 3] | 1.25 | 1.25 | 320 | 320 | 320 | 320 | 1 | 320 | 1 | 320 | 1 | 320 | 1 | 320 | 1 | 320 | 1 | 320 | 1 | 320 | Fold changes of MICs (EKO-35 araC::mdtBC Pore): 1 fold; Fold changes of MICs (EKO-35 araC::mdtEF Pore; EKO-35 araC::mdtEF Pore compared to EKO-35-Pore): 1 fold; Fold change of MICs (EKO-35 araC::acrB): 1 fold; Minimum Inhibitory Concentration, EKO-35 araC::acrB (EKO-35 araC::acrB): 320 µg/mL; Fold change of MICs (EKO-35 araC::emrKY): 1 fold; Minimum Inhibitory Concentration, EKO-35 araC::emrKY (EKO-35 araC::emrKY): 320 µg/mL; Fold change of MICs (EKO-35 araC::acrEF): 1 fold; Minimum Inhibitory Concentration, EKO-35 araC::acrEF (EKO-35 araC::acrEF): 320 µg/mL; Fold change of MICs (EKO-35 araC::acrBD408A): 1 fold; Minimum Inhibitory Concentration, EKO-35 araC::acrBD408A (EKO-35 araC::acrBD408A): 320 µg/mL; Minimum inhibitory concentration (MIC), K-12 [2]: 320 mg/L; Minimum Inhibitory Concentration, K-12 [2]: 320 µg/mL; Fold change of MICs (E. coli EKO-35): 1 fold; Minimum inhibitory concentration (MIC), EKO-35 (E. coli EKO-35): 320 mg/L; Minimum Inhibitory Concentration, EKO-35 (E. coli EKO-35): 320 µg/mL; Minimum inhibitory concentration (MIC), ΔtolC (E. coli ΔtolC): 2.5 mg/L; Minimum Inhibitory Concentration, ΔtolC (E. coli ΔtolC): 2.5 µg/mL; Fold changes of MICs (EKO-35-Pore): 1 fold; Minimum inhibitory concentration (MIC), Pore EKO-35 (EKO-35-Pore): 320 mg/L; Minimum inhibitory concentration, EKO-35-Pore (EKO-35-Pore): 320 mg/L
CC(C)(C)c1cc(C(=O)NNC(=O)Nc2cccc3ccccc23)n(Cc2ccc(F)cc2)n1 [compound 4] | 1.25 | 1.25 | 320 | 320 | 2.5 | 320 | 128 | 320 | 16 | 320 | 1 | 20 | 1 | 20 | 16 | 320 | 16 | 320 | 16 | 320 | Fold changes of MICs (EKO-35 araC::mdtBC Pore): 1 fold; Fold change of MICs (EKO-35 araC::acrB): 16 fold; Minimum Inhibitory Concentration, EKO-35 araC::acrB (EKO-35 araC::acrB): 320 µg/mL; Fold change of MICs (EKO-35 araC::emrKY): 1 fold; Minimum Inhibitory Concentration, EKO-35 araC::emrKY (EKO-35 araC::emrKY): 20 µg/mL; Fold change of MICs (EKO-35 araC::acrEF): 16 fold; Minimum Inhibitory Concentration, EKO-35 araC::acrEF (EKO-35 araC::acrEF): 320 µg/mL; Fold change of MICs (EKO-35 araC::acrBD408A): 1 fold; Minimum Inhibitory Concentration, EKO-35 araC::acrBD408A (EKO-35 araC::acrBD408A): 20 µg/mL; Minimum inhibitory concentration (MIC), K-12 [2]: 320 mg/L; Minimum Inhibitory Concentration, K-12 [2]: 320 µg/mL; Fold change of MICs (E. coli EKO-35): 1 fold; Minimum inhibitory concentration (MIC), EKO-35 (E. coli EKO-35): 20 mg/L; Minimum Inhibitory Concentration, EKO-35 (E. coli EKO-35): 20 µg/mL; susceptibility of EKO-35 to the compound (E. coli EKO-35): susceptible; Minimum inhibitory concentration (MIC), ΔtolC (E. coli ΔtolC): 10 mg/L; Minimum Inhibitory Concentration, ΔtolC (E. coli ΔtolC): 10 µg/mL; Fold changes of MICs (EKO-35-Pore): 1 fold; Minimum inhibitory concentration (MIC), Pore EKO-35 (EKO-35-Pore): 2.5 mg/L; Minimum inhibitory concentration, EKO-35-Pore (EKO-35-Pore): 2.5 mg/L
O=c1oc(-c2ccccc2Cl)nn1-c1ccc(C(F)(F)F)cn1 [compound 5] | 2.5 | 2.5 | 320 | 320 | 10 | 320 | 16 | 320 | 2 | 40 | 1 | 10 | 1 | 20 | 16 | 320 | 16 | 320 | 16 | 320 | Fold change of MICs (EKO-35 araC::acrB): 16 fold; Minimum Inhibitory Concentration, EKO-35 araC::acrB (EKO-35 araC::acrB): 320 µg/mL; Fold change of MICs (EKO-35 araC::emrKY): 1 fold; Minimum Inhibitory Concentration, EKO-35 araC::emrKY (EKO-35 araC::emrKY): 20 µg/mL; Fold change of MICs (EKO-35 araC::acrEF): 16 fold; Minimum Inhibitory Concentration, EKO-35 araC::acrEF (EKO-35 araC::acrEF): 320 µg/mL; Fold change of MICs (EKO-35 araC::acrBD408A): 1 fold; Minimum Inhibitory Concentration, EKO-35 araC::acrBD408A (EKO-35 araC::acrBD408A): 20 µg/mL; Minimum inhibitory concentration (MIC), K-12 [2]: 320 mg/L; Minimum Inhibitory Concentration, K-12 [2]: 320 µg/mL; Fold change of MICs (E. coli EKO-35): 1 fold; Minimum inhibitory concentration (MIC), EKO-35 (E. coli EKO-35): 20 mg/L; Minimum Inhibitory Concentration, EKO-35 (E. coli EKO-35): 20 µg/mL; susceptibility of EKO-35 to the compound (E. coli EKO-35): susceptible; Minimum inhibitory concentration (MIC), ΔtolC (E. coli ΔtolC): 10 mg/L; Minimum Inhibitory Concentration, ΔtolC (E. coli ΔtolC): 10 µg/mL; Fold changes of MICs (EKO-35-Pore): 1 fold; Minimum inhibitory concentration (MIC), Pore EKO-35 (EKO-35-Pore): 20 mg/L; Minimum inhibitory concentration, EKO-35-Pore (EKO-35-Pore): 20 mg/L

Source: patent publication US20230407243A1, “GENETIC PLATFORM TO INVESTIGATE THE FUNCTIONS OF BACTERIAL DRUG EFFLUX PUMPS” (priority 2022, published 2023)
